In patent publication US6022495A, “Photochromic benzopyrano-fused naphthopyrans” (Transitions Optical, Inc., priority 1998, dated 2000):

Legend:
[1] = Visible lambda max of the activated form in polymer test squares (Varian Cary 3 UV-Visible spectrophotometer); assay type: physicochemical; conditions: activated (colored) form in test square of BPA 2EO DMA / poly(ethylene glycol) 600 dimethacrylate, 1.5×10^-3 molal
Method: (§1) Testing was done with the photochromic compounds prepared in Examples 1-11 in the following manner. A quantity of each photochromic compound calculated to yield a 1.5×10^-3 molal solution was added to a flask containing 50 grams of a monomer blend of 4 parts ethoxylated bisphenol A dimethacrylate (BPA 2EO DMA), 1 part poly(ethylene glycol) 600 dimethacrylate, and 0.033 weight percent 2,2'-azobis(2-methyl propionitrile) (AIBN). Each photochromic compound was dissolved into the monomer blend by stirring and gentle heating. After a clear solution was obtained, it was poured into a flat sheet mold having the interior dimensions of 2.2 mm×6 inches (15.24 cm)×6 inches (15.24 cm). The mold was sealed and placed in a horizontal air flow, programmable oven programmed to increase the temperature from 40° C. to 95° C. over […], hold the temperature at 95° C. for 3 hours, lower it to 60° C. over a 2 hour interval and then hold at 60° C. for 16 hours. After the mold was opened, the polymer sheet was cut using a diamond blade saw into 2 inch (5.1 centimeters) test squares.
The Δ OD/min, which represents the sensitivity of the photochromic compound's response to UV light, was measured over the first five (5) seconds of UV exposure, then expressed on a per minute basis. The saturation optical density (Δ OD@ Saturation) was taken under identical conditions as the Δ OD/min, except UV exposure was continued for 15 minutes. The lambda max (Vis) is the wavelength in nanometers (nm) in the visible spectrum at which the maximum absorption of the activated (colored) form of the photochromic compound in a test square occurs. The lambda max (Vis) wavelength was determined by testing the photochromic test square polymerizates of Part A in a Varian Cary 3 UV-Visible spectrophotometer. The Bleach Rate (T 1/2) is the time interval in seconds for the absorbance of the activated form of the photochromic compound in the test squares to reach one half the highest absorbance at room temperature (72° F., 22.20C.) after removal of the source of activating light.

[2] = Photochromic response of polymer test squares on an optical bench; assay type: physicochemical; conditions: for ΔOD @ Saturation: UV exposure continued for 15 minutes; for ΔOD @ Saturation / Sensitivity ΔOD/min: 72° F. (22.2° C.); for Sensitivity ΔOD/min: first five (5) seconds of UV exposure, expressed per minute; for Bleach Rate T 1/2: time for absorbance of activated form to reach one half the highest absorbance at room temperature (72° F.) after removal of activating light
Method: as §1
The photochromic test squares prepared in Part A were tested for photochromic response on an optical bench. Prior to testing on the optical bench, the photochromic test squares were exposed to 365 nanometer ultraviolet light for about 15 minutes to activate the photochromic compounds and then placed in a 76° C. oven for about 15 minutes to bleach or inactivate the photochromic compounds. The test squares were then cooled to room temperature, exposed to fluorescent room lighting for at least 2 hours and then kept covered for at least 2 hours prior to testing on an optical bench maintained at 72° F. (22.2° C.). The bench was fitted with a 150 watt Xenon arc lamp, a remote controlled shutter, a copper sulfate bath acting as a heat sink for the arc lamp, a Schott WG-320 nm cut-off filter which removes short wavelength radiation; neutral density filter(s) and a sample holder in which the square to be tested was inserted. The power output of the optical bench, i.e., the dosage of light that the sample lens would be exposed to, was calibrated with a photochromic test square used as a reference standard. […] The UV-A detector was placed into the sample holder and the light output was measured. Adjustments to the power output were made by increasing or decreasing the lamp wattage or by adding or removing neutral density filters in the light path.
A monitoring, collimated beam of light from a tungsten lamp was passed through the square at a small angle (approximately […]) normal to the square. After passing through the square, the light from the tungsten lamp was directed to a detector through Spectral Energy Corp. GM-200 monochromator set at the previously determined visible lambda max of the photochromic compound being measured. The output signals from the detector were processed by a radiometer.
Change in optical density (ΔOD) was determined by inserting a test square in the bleached state into the sample holder, adjusting the transmittance scale to 100%, opening the shutter from the Xenon lamp to provide ultraviolet radiation to change the test square from the bleached state to an activated (i.e., darkened) state, measuring the transmittance in the activated state, and calculating the change in optical density according to the formula: ΔOD=log(100/% Ta), where % Ta is the percent transmittance in the activated state and the logarithm is to the base 10.
The Δ OD/min, which represents the sensitivity of the photochromic compound's response to UV light, was measured over the first five (5) seconds of UV exposure, then expressed on a per minute basis. The saturation optical density (Δ OD@ Saturation) was taken under identical conditions as the Δ OD/min, except UV exposure was continued for 15 minutes. […]

| lambda max (Vis) [1] [nanometers] | ΔOD @ Saturation [2] | Sensitivity ΔOD/min [2] | Bleach Rate T 1/2 [2] [s] | SMILES |
| --- | --- | --- | --- | --- |
| 464 | 0.29 | 0.31 ΔOD/min | 47 | COc1ccc(C2(c3ccccc3)C=Cc3c(c4c5cc(OC)c(OC)cc5c(=O)oc4c4ccccc34)O2)cc1 (centres unmarked) [Compound 7B, 2-(4-methoxphenyl)-2-phenyl-12,13-dimethoxy-10-oxo-2,10-dihydro[2]benzopyrano[4',3':3,4]naphtho(2,1-b)pyran] |
| 569 | 0.10 | 0.22 ΔOD/min | 32 | COc1ccc(C2(c3ccc(OC)cc3)C=Cc3c(c4ccccc4c4c3oc(=O)c3cc(OC)c(OC)cc34)O2)cc1 [Compound 6B, 6,6-bis(4-methoxyphenyl)-12,13-dimethoxy-10-oxo-6,10-dihydro[2]benzopyrano[3',4':3,4]naphtho(1,2-b)pyran] |
